Measured values as given in US20180353483A1, “PHARMACEUTICAL COMPOSITIONS AND METHODS FOR INDOLEAMINE, 2, 3-DIOXYGENASE INHIBITION AND INDICATIONS THEREFOR” (Incyte Corporation, priority 2015, published 2018).
Where two headings read alike, the source gives them in different places.

Assay: Pharmacokinetics of Compound 1 in combination with MK-3475 in subjects with various cancers
Assay type: in vivo, human
Experimental: The subjects were not limited to a specific cancers and study include subjects with various cancers. […] One treatment cycle consisted of 21 days. […] Additional subjects were enrolled in a cohort to achieve the minimum of 3 evaluable subjects if dropouts or dose interruptions or reductions occur that result in a subject being non-evaluable for DLTs. […] An additional safety cohort was opened at 100 mg BID in parallel to 300 mg BID being tested. This may also be limited to subjects with melanoma, NSCLC, or specific cancer types from among those included in Phase 1. The RP2D was selected from the evaluated safety expansions.
If a dose was missed by more than 4 hours, that dose was skipped and was resumed at the scheduled time.
Pharmacokinetic samples were obtained at the visits of Cycle 1 Day 1, Cycle 1 Day 8 and Cycle 2 Day 1. […] The exact date and time of the PK blood draws were recorded in the eCRF along with the date and time of the last dose of study drug and details of the last meal preceding the blood draw.
The planned PK time points were used for preliminary PK analyses.

[1] = subjects with dose reduction before C4D1, 50 mg BID, C1D8, mean ± SD

NS(=O)(=O)NCCNc1nonc1C(=NO)Nc1ccc(F)c(Br)c1 [Compound 1, 4-({2-[(aminosulfonyl)amino]ethyl}amino)-N-(3-bromo-4-fluorophenyl)-N′-hydroxy-1,2,5-oxadiazole-3-carboximidamide]
AUC(0-t) (human, plasma, oral, 100 mg, Diagnosis DLBCL, first dose, geometric mean, read-out: AUC0-t): 1.9 µM·h | Cmax (human, plasma, oral, 100 mg, Diagnosis DLBCL, first dose, mean ± SD): 732 ± 370 nM | tmax (human, plasma, oral, 100 mg, Diagnosis DLBCL, first dose, median, read-out: tmax): 3 h | Cmax (human, plasma, oral, 100 mg, Diagnosis GU, first dose, geometric mean): 878 nM | AUC(0-t) (human, plasma, oral, 100 mg, Diagnosis GU, first dose, geometric mean, read-out: AUC0-t): 2.71 µM·h | Cmax (human, plasma, oral, 100 mg, Diagnosis GU, first dose, mean ± SD): 986 ± 492 nM | AUC(0-t) (human, plasma, oral, 100 mg, Diagnosis GU, first dose, mean ± SD, read-out: AUC0-t): 2.96 ± 1.28 µM·h | AUC(0-t) (human, plasma, oral, 100 mg, Diagnosis MEL, first dose, geometric mean, read-out: AUC0-t): 2.37 µM·h | Cmax (human, plasma, oral, 100 mg, Diagnosis MEL, first dose, mean ± SD): 870 ± 347 nM | AUC(0-t) (human, plasma, oral, 100 mg, Diagnosis MEL, first dose, mean ± SD, read-out: AUC0-t): 2.48 ± 0.773 µM·h | Cmax (human, plasma, oral, 100 mg, Diagnosis NSCLC PD-L1 High, first dose, geometric mean): 878 nM | AUC(0-t) (human, plasma, oral, 100 mg, Diagnosis NSCLC PD-L1 High, first dose, geometric mean, read-out: AUC0-t): 2.62 µM·h | Cmax (human, plasma, oral, 100 mg, Diagnosis NSCLC PD-L1 High, first dose, mean ± SD): 1020 ± 573 nM | AUC(0-t) (human, plasma, oral, 100 mg, Diagnosis NSCLC PD-L1 High, first dose, mean ± SD, read-out: AUC0-t): 2.88 ± 1.3 µM·h | tmax (human, plasma, oral, 100 mg, Diagnosis NSCLC PD-L1 High, first dose, median, read-out: tmax): 1.5 h | Cmax (human, plasma, oral, 100 mg, Diagnosis NSCLC PD-L1 Low/NE, first dose, geometric mean): 857 nM | AUC(0-t) (human, plasma, oral, 100 mg, Diagnosis NSCLC PD-L1 Low/NE, first dose, geometric mean, read-out: AUC0-t): 2.66 µM·h | AUC(0-t) (human, plasma, oral, 100 mg, Diagnosis NSCLC PD-L1 Low/NE, first dose, mean ± SD, read-out: AUC0-t): 2.77 ± 0.839 µM·h | Cmax (human, plasma, oral, 100 mg, Diagnosis OC, first dose, geometric mean): 886 nM | AUC(0-t) (human, plasma, oral, 100 mg, Diagnosis OC, first dose, geometric mean, read-out: AUC0-t): 2.99 µM·h | Cmax (human, plasma, oral, 100 mg, Diagnosis OC, first dose, mean ± SD): 967 ± 405 nM | AUC(0-t) (human, plasma, oral, 100 mg, Diagnosis OC, first dose, mean ± SD, read-out: AUC0-t): 3.16 ± 1.1 µM·h | tmax (human, plasma, oral, 100 mg, Diagnosis RCC, first dose, individual values of 2 subjects, read-out: tmax): 3 h | Cmax (human, plasma, oral, 100 mg, Diagnosis SCCHN, first dose, geometric mean): 649 nM | AUC(0-t) (human, plasma, oral, 100 mg, Diagnosis SCCHN, first dose, geometric mean, read-out: AUC0-t): 2.06 µM·h | Cmax (human, plasma, oral, 100 mg, Diagnosis SCCHN, first dose, mean ± SD): 769 ± 439 nM | Cmax (human, plasma, oral, 100 mg, Diagnosis TNBC, first dose, geometric mean): 898 nM | AUC(0-t) (human, plasma, oral, 100 mg, Diagnosis TNBC, first dose, geometric mean, read-out: AUC0-t): 2.82 µM·h | Cmax (human, plasma, oral, 100 mg, Diagnosis TNBC, first dose, mean ± SD): 1030 ± 574 nM | AUC(0-t) (human, plasma, oral, 100 mg, Diagnosis TNBC, first dose, mean ± SD, read-out: AUC0-t): 3.08 ± 1.39 µM·h | AUC(0-t) (human, plasma, oral, 100 mg, by dose, 100 mg BID, steady state C1D8, geometric mean, read-out: AUC0-12 h (converted)): 3.57 µM·h | AUC(0-t) (human, plasma, oral, 100 mg, by dose, 100 mg BID, steady state C1D8, mean ± SD, read-out: AUC0-12 h (converted)): 3.82 ± 1.37 µM·h | AUC(0-t) (human, plasma, oral, 100 mg, by dose, 100 mg, first dose, mean ± SD, read-out: AUC0-t): 2.47 ± 0.861 µM·h | AUC(0-t) (human, plasma, oral, 300 mg, Cohort 6, 300 mg BID, steady state C1D8, geometric mean, read-out: AUC0-12 h (converted)): 11.3 µM·h | AUC(0-t) (human, plasma, oral, 300 mg, Cohort 6, 300 mg BID, steady state C1D8, mean ± SD, read-out: AUC0-12 h (converted)): 12.3 ± 6.09 µM·h | Cmax (human, plasma, oral, 300 mg, Cohort 6, 300 mg, first dose, geometric mean): 1790 nM | AUC(0-t) (human, plasma, oral, 300 mg, Cohort 6, 300 mg, first dose, geometric mean, read-out: AUC0-t): 6.92 µM·h | Cmax (human, plasma, oral, 300 mg, Cohort 6, 300 mg, first dose, mean ± SD): 2220 ± 1720 nM | AUC(0-t) (human, plasma, oral, 300 mg, Cohort 6, 300 mg, first dose, mean ± SD, read-out: AUC0-t): 7.47 ± 3.32 µM·h | AUC(0-t) (human, plasma, oral, 300 mg, Cohort 7, 300 mg BID, steady state C1D8, geometric mean, read-out: AUC0-12 h (converted)): 11.3 µM·h | Cmax (human, plasma, oral, 300 mg, Cohort 7, 300 mg BID, steady state C1D8, mean ± SD): 2750 ± 1220 nM | AUC(0-t) (human, plasma, oral, 300 mg, Cohort 7, 300 mg BID, steady state C1D8, mean ± SD, read-out: AUC0-12 h (converted)): 12.2 ± 5.92 µM·h | Cmax (human, plasma, oral, 300 mg, Cohort 7, 300 mg, first dose, geometric mean): 2170 nM | AUC(0-t) (human, plasma, oral, 300 mg, Cohort 7, 300 mg, first dose, geometric mean, read-out: AUC0-t): 6.88 µM·h | Cmax (human, plasma, oral, 300 mg, Cohort 7, 300 mg, first dose, mean ± SD): 2330 ± 925 nM | AUC(0-t) (human, plasma, oral, 300 mg, Cohort 7, 300 mg, first dose, mean ± SD, read-out: AUC0-t): 7.38 ± 2.86 µM·h | AUC(0-t) (human, plasma, oral, 300 mg, by dose, 300 mg BID, steady state C1D8, geometric mean, read-out: AUC0-12 h (converted)): 11.3 µM·h | Cmax (human, plasma, oral, 300 mg, by dose, 300 mg BID, steady state C1D8, mean ± SD): 2740 ± 1190 nM | AUC(0-t) (human, plasma, oral, 300 mg, by dose, 300 mg BID, steady state C1D8, mean ± SD, read-out: AUC0-12 h (converted)): 12.3 ± 5.81 µM·h | AUC(0-t) (human, plasma, oral, 300 mg, by dose, 300 mg, first dose, geometric mean, read-out: AUC0-t): 6.89 µM·h | AUC(0-t) (human, plasma, oral, 300 mg, by dose, 300 mg, first dose, mean ± SD, read-out: AUC0-t): 7.41 ± 2.95 µM·h | Cmax (human, plasma, oral, 300 mg, subjects with dose reduction before C4D1, 300 mg BID, C1D8, geometric mean): 3000 nM | AUC(0-t) (human, plasma, oral, 300 mg, subjects with dose reduction before C4D1, 300 mg BID, C1D8, geometric mean, read-out: AUC0-12 h (converted)): 13.3 µM·h | Cmax (human, plasma, oral, 300 mg, subjects with dose reduction before C4D1, 300 mg BID, C1D8, mean ± SD): 3180 ± 1280 nM | AUC(0-t) (human, plasma, oral, 300 mg, subjects with dose reduction before C4D1, 300 mg BID, C1D8, mean ± SD, read-out: AUC0-12 h (converted)): 14.6 ± 7.4 µM·h | dose proportionality of exposures (non-compartmental analysis): approximate dose-proportional exposures | AUC0-12 h (subjects with dose reduction before C4D1, 50 mg BID, C1D8, geometric mean): (2.29) μM * h | AUC0-12 h [1]: 2.41 ± 0.980 µM·h | CL/F [1]: 52.0 ± 17.1 L/h | tmax (subjects with dose reduction before C4D1, 50 mg BID, C1D8, median): 2.00 h | CL/F (subjects with dose reduction before C4D1, 300 mg BID, C1D8, mean ± SD): 55.4 ± 23.0 L/h | tmax (subjects with dose reduction before C4D1, 300 mg BID, C1D8, median): 2.00 h
